One test concerns the target T1, TEC (Homo sapiens, UniProt P42680).
T1 sequence (P42680 1-631): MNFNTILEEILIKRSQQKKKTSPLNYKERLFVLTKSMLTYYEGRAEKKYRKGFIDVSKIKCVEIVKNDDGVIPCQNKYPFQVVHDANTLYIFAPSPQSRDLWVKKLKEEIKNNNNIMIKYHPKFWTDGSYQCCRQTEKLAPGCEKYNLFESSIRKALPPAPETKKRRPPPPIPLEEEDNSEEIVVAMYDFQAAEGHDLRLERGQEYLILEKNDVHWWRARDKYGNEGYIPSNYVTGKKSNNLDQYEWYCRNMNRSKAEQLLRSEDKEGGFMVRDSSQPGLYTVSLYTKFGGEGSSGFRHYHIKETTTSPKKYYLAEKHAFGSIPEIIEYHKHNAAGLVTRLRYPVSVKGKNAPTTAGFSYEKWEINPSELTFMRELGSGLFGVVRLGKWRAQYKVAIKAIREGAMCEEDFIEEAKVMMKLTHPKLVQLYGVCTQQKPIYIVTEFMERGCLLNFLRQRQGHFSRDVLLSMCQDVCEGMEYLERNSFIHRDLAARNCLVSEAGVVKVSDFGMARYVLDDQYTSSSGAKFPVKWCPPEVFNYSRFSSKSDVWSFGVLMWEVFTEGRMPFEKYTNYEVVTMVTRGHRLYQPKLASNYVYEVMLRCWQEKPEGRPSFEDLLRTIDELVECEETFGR
Briefly: scanMAX binding POC, TEC. The note with it: 1 μM.

In a further test the target is T2, ITK (Homo sapiens, UniProt Q08881).
T2 sequence (Q08881 1-620): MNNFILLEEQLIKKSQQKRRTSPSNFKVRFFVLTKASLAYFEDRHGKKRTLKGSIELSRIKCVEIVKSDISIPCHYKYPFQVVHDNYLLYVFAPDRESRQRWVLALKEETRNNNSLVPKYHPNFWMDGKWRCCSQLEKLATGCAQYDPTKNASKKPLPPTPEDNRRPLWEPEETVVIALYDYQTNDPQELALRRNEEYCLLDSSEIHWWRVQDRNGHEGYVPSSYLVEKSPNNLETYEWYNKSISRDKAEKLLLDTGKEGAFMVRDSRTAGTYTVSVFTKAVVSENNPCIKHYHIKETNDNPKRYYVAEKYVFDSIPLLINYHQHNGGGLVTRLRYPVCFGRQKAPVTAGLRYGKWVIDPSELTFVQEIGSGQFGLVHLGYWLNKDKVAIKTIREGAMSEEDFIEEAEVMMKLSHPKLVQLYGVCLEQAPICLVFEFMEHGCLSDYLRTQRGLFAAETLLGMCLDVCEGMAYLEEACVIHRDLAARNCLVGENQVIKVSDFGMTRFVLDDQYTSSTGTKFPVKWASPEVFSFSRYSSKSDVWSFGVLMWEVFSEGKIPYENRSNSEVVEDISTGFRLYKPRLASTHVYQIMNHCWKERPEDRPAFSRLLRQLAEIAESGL
Put plainly: scanMAX binding POC, ITK. The note with it: 1 μM.

The target in another test is BLK (Homo sapiens, UniProt P51451). Briefly: scanMAX binding POC, BLK. The note with it: 1 μM.
A further test addresses ERBB2 (Homo sapiens, UniProt P04626). Briefly: scanMAX binding POC, ERBB2. The note with it: 1 μM.
A further test addresses ERBB3 (Homo sapiens, UniProt P21860). Put plainly: scanMAX binding POC, ERBB3. The note with it: 1 μM.
For test [1], the target named is T3, JAK3 (JH1 catalytic domain) (Homo sapiens, UniProt P52333).
T3 construct: The JAK3 POC is for its JH1 catalytic domain
Briefly: scanMAX binding POC, JAK3. The note with it: 1 μM.

A further test addresses T4, MKK7 (Homo sapiens, UniProt O14733).
T4 sequence (O14733 1-419): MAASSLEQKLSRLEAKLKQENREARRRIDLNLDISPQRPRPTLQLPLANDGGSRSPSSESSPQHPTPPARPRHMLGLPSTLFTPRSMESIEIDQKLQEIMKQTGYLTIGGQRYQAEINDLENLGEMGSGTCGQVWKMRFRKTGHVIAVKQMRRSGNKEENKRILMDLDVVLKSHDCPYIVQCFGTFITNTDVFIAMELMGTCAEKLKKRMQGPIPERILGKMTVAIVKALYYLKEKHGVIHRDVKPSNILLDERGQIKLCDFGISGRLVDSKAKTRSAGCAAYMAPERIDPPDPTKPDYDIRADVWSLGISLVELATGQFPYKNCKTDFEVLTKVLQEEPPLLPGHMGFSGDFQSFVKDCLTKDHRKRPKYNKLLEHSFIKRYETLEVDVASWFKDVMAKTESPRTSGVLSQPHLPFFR
Put plainly: scanMAX binding POC, MKK7. The note with it: 1 μM.

The next test deals with BTK. The note with it: cited from earlier work.
Another test deals with JNK1 (MAPK8) (Homo sapiens, UniProt P45983). Put plainly: scanMAX binding POC, JNK1. The note with it: 1 μM.
The next test concerns the target JNK2 (MAPK9) (Homo sapiens, UniProt P45984). Put plainly: scanMAX binding POC, JNK2. The note with it: 1 μM.
A further test concerns the target JNK3 (MAPK10) (Homo sapiens, UniProt P53779). Put plainly: scanMAX binding POC, JNK3. The note with it: 1 μM.

The structures appear in SMILES notation.

ERBB2, sequence (P04626 23-1255): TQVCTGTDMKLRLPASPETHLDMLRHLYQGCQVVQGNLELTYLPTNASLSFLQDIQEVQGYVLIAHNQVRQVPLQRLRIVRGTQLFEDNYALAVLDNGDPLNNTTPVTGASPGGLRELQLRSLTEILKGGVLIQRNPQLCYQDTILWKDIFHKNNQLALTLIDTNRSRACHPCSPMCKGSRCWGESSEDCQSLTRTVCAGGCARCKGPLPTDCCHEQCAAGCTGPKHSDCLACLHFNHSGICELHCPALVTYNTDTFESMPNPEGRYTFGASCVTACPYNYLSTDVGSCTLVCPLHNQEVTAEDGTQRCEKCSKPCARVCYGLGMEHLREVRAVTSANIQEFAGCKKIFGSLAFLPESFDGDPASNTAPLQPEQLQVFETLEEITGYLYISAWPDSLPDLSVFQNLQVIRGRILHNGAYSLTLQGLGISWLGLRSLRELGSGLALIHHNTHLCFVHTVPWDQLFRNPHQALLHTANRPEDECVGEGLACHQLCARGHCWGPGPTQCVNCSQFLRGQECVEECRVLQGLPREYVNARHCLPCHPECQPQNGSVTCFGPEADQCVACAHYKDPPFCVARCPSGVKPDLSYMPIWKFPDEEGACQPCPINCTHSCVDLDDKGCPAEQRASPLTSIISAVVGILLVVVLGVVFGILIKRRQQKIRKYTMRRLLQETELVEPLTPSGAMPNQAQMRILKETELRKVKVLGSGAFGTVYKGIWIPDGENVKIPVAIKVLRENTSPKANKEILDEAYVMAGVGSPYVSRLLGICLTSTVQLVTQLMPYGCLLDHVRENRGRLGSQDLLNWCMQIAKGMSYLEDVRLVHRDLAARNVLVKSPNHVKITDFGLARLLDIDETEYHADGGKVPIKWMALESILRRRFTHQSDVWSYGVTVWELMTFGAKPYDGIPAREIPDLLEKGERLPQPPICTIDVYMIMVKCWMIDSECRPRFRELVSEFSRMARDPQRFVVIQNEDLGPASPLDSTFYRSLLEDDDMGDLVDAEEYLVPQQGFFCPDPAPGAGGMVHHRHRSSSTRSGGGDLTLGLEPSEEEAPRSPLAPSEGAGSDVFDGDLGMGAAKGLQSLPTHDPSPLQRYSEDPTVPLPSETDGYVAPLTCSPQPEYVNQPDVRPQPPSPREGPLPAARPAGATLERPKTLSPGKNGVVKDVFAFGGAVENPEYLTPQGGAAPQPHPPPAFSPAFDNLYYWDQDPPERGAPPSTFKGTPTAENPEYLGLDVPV
ERBB3, sequence (P21860 20-1342): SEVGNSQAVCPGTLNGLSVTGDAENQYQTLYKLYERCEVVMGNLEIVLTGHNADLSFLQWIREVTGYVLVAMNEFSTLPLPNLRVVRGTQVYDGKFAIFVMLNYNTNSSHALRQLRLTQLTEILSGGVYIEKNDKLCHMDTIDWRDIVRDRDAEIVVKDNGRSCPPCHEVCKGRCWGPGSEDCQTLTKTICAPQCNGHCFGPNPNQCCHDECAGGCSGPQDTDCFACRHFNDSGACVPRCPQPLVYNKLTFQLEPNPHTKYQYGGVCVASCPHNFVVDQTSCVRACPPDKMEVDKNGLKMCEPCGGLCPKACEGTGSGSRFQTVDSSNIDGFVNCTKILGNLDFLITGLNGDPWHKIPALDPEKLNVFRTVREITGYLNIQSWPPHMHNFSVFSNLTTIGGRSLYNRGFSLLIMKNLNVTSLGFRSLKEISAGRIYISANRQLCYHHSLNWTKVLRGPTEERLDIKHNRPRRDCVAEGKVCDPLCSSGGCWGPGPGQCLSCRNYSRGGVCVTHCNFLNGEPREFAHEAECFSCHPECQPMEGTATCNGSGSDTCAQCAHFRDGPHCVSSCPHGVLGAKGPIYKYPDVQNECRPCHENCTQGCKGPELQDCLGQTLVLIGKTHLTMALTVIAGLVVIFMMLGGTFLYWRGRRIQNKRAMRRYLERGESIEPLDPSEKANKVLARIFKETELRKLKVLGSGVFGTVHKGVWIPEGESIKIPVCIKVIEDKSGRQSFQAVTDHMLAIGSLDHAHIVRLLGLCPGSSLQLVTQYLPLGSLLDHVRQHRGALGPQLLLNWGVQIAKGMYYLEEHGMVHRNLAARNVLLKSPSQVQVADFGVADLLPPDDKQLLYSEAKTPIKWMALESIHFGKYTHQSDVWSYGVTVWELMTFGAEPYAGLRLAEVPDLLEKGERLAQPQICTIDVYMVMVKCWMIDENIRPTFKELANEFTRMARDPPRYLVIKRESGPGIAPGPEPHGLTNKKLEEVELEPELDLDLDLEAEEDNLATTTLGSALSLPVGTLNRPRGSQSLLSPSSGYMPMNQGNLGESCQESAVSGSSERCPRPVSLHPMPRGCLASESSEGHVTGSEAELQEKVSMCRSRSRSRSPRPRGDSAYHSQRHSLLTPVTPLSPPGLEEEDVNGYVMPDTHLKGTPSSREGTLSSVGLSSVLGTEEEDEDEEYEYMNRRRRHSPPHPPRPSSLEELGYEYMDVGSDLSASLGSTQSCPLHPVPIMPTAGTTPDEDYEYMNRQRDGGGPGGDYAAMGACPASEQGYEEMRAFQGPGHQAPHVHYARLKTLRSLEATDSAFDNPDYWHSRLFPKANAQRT
BLK, sequence (P51451 whole entry): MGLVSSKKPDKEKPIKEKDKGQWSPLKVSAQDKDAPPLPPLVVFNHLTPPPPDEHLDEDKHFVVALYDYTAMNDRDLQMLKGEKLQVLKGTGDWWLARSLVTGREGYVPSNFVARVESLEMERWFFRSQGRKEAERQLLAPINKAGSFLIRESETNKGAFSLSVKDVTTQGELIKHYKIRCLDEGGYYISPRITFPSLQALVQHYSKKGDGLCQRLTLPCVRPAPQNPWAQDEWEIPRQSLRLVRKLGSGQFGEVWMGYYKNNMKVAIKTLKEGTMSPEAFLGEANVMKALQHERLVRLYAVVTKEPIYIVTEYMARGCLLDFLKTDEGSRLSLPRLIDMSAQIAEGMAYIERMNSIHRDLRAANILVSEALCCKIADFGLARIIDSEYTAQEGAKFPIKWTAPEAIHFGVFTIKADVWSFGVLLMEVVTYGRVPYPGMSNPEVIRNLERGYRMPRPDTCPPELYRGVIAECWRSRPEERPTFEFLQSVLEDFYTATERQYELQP
T3 sequence (P52333 822-1111 limits assumed): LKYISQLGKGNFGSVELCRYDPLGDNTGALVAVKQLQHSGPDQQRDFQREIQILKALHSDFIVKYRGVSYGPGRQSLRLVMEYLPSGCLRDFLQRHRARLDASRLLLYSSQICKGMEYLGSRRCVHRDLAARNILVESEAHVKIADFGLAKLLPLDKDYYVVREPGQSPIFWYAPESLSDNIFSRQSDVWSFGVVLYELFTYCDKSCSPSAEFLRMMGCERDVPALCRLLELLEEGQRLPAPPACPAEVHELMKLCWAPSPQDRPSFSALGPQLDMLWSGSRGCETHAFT
JNK3 (MAPK10), sequence (P53779 whole entry): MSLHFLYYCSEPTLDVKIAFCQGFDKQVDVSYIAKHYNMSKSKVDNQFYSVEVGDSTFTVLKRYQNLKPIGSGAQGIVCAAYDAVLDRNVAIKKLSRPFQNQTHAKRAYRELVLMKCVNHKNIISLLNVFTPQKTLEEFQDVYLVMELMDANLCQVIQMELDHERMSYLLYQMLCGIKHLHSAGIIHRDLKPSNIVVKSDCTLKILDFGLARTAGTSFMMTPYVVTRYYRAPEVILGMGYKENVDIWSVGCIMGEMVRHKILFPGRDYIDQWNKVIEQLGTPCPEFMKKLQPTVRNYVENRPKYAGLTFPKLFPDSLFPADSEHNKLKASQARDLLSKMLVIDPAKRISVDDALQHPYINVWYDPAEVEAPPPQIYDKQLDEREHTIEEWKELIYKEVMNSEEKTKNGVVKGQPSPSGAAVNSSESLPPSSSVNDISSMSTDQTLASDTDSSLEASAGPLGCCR
JNK1 (MAPK8), sequence (P45983 whole entry): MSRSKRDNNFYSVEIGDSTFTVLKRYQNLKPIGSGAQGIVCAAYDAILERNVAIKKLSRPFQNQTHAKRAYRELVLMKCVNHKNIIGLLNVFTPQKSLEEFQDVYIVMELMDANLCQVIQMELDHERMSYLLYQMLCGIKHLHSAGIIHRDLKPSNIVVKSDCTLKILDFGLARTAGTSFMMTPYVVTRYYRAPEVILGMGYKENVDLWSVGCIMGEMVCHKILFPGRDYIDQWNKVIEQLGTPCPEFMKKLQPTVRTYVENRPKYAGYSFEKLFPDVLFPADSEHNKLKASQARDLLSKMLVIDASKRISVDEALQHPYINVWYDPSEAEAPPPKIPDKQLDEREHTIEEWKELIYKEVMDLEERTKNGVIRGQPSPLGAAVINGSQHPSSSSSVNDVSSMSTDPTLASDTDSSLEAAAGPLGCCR
JNK2 (MAPK9), sequence (P45984 whole entry): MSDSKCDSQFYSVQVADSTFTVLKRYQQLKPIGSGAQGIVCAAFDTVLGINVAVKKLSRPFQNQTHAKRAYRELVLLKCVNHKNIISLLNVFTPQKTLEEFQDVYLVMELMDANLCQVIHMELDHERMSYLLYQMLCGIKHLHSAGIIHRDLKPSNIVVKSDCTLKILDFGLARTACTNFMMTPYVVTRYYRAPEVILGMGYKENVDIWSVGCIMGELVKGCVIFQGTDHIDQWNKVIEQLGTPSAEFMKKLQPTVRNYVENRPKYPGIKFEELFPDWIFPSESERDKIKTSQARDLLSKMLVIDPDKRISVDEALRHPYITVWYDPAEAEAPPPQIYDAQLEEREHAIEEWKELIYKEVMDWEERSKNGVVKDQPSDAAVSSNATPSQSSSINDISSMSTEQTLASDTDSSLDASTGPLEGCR
Protocol for JNK1 (MAPK8): (§1) The compounds were diluted directly into the assays such that the final concentration of DMSO was 0.9%. No enzyme purification steps were performed on the protein extracts before adding them to the reaction mixture, and the protein extracts were diluted 10,000-fold in the final reaction mixture (the final DNA-tagged enzyme concentration was less than 0.1 nM). Binding assay mixtures were incubated at 25 °C with shaking for 1 h. […] The concentration of wild-type or mutant BTK in the eluates was then determined using quantitative PCR. […] Each assay’s affinity ligand concentration on the magnetic beads has been optimized to ensure that the true thermodynamic Kd values for competitor molecules were measured, as described in detail previously99.
(§2) Comparison of BTK inhibitor specificity to c-Jun N-terminal kinases (JNK1-3/MAPKP8-10).
(§3) a The percent of control (POC) is the percent of kinase that was competed off its control ligand relative to the positive and negative controls at the screening concentration56. A zero POC signifies that the compound
Protocol for JNK3 (MAPK10): as §1, §2, §3

One may read the IC50 as the midpoint of a concentration-inhibition curve. Take `COc1ccc(F)cc1C(=O)NCc1ccc(-c2nn([C@@H](C)C(F)(F)F)c(N)c2C(N)=O)cc1` [Pirtobrutinib]: on TEC, the “TEC binding POC” value is 12% of control. Further, the “ITK binding POC” value at ITK is reported as 100% of control. Besides, the “BLK binding POC” value at BLK was 69% of control. On ERBB2, the “ERBB2 binding POC” value is 5.9% of control. In addition, the “ERBB3 binding POC” value on ERBB3 is 97% of control. Besides, the “JAK3 binding POC” value in test [1] is on record as 77% of control. Besides, at MKK7, the “MKK7 binding POC” value is given as 91% of control. Besides, in the test with BTK, the IC50 was 3.2 nM. Also, the “JNK1 (MAPK8) POC” value on JNK1 (MAPK8) is recorded as 96% of control. Further, the “JNK2 (MAPK9) POC” value on JNK2 (MAPK9) is on record as 94% of control. Besides, the “JNK3 (MAPK10) POC” value at JNK3 (MAPK10) is listed as 100% of control.
For the molecule `C=CC(=O)Nc1cccc(Nc2nc(Nc3ccc(OCCOC)cc3)ncc2F)c1` [Spebrutinib], the “TEC binding POC” value on TEC is 8.1% of control. For the same molecule, at ITK, the “ITK binding POC” value is listed as 51% of control. In addition, the “BLK binding POC” value at BLK is 22% of control. The “ERBB2 binding POC” value at ERBB2 is 57% of control. Also, the “ERBB3 binding POC” value at ERBB3 was 83% of control. Also, the “JAK3 binding POC” value in test [1] is recorded as 0% of control. For the same molecule, at MKK7, the “MKK7 binding POC” value is on record as 79% of control. Moreover, the IC50 in the test on BTK is […]. Also, at JNK1 (MAPK8), the “JNK1 (MAPK8) POC” value is listed as 4.8% of control. Further, the “JNK2 (MAPK9) POC” value at JNK2 (MAPK9) is on record as 8.4% of control. The “JNK3 (MAPK10) POC” value at JNK3 (MAPK10) was 3.9% of control.
Regarding `O=C(c1ccc(Oc2ccccc2)cc1Cl)c1c[nH]c2ncnc(N[C@@H]3CC[C@@H](CO)OC3)c12` [Nemtabrutinib], the “TEC binding POC” value at TEC was 7.3% of control. The “ITK binding POC” value at ITK is on record as 86% of control. On BLK, the “BLK binding POC” value was 0.3% of control. For the same molecule, the “ERBB2 binding POC” value on ERBB2 is on record as 0% of control. Besides, the “ERBB3 binding POC” value at ERBB3 is listed as 0.9% of control. For the same molecule, in [1], the “JAK3 binding POC” value is reported as 86% of control. Also, the “MKK7 binding POC” value at MKK7 was 39% of control. Moreover, the IC50 in the test on BTK was 0.85 nM. The “JNK1 (MAPK8) POC” value on JNK1 (MAPK8) was 39% of control. For the same molecule, the “JNK2 (MAPK9) POC” value at JNK2 (MAPK9) is reported as 100% of control. Besides, the “JNK3 (MAPK10) POC” value on JNK3 (MAPK10) is reported as 100% of control.
For the molecule `C=CC(=O)N1CCC[C@@H](c2ccc(C(N)=O)c3[nH]ccc23)C1` [Elsubrutinib], the “TEC binding POC” value on TEC was 18% of control. Moreover, on ITK, the “ITK binding POC” value is 94% of control. Moreover, at BLK, the “BLK binding POC” value is reported as 15% of control. For the same molecule, the “ERBB2 binding POC” value at ERBB2 is reported as 73% of control. Besides, the “ERBB3 binding POC” value at ERBB3 is 74% of control. Besides, in test [1], the “JAK3 binding POC” value was 0.15% of control. The “MKK7 binding POC” value is 24% of control on MKK7 and “weak hit” on MKK7 (listed as elsubrutinib). Also, the IC50 with BTK is 180 nM. Also, the “JNK1 (MAPK8) POC” value on JNK1 (MAPK8) is reported as 96% of control. Further, the “JNK2 (MAPK9) POC” value on JNK2 (MAPK9) is recorded as 91% of control. Moreover, the “JNK3 (MAPK10) POC” value at JNK3 (MAPK10) is on record as 94% of control.
As for `C[C@H]1CN(C2COC2)CCN1c1ccc(Nc2cc(-c3ccnc(N4CCn5c(cc6c5CC(C)(C)C6)C4=O)c3CO)cn(C)c2=O)nc1` [Fenebrutinib], the “TEC binding POC” value on TEC is on record as 17% of control. Further, at ITK, the “ITK binding POC” value is recorded as 25% of control. The “BLK binding POC” value on BLK is 60% of control. The “ERBB2 binding POC” value on ERBB2 is on record as 97% of control. The “ERBB3 binding POC” value on ERBB3 is recorded as 78% of control. Besides, in test [1], the “JAK3 binding POC” value is 95% of control. In addition, the “MKK7 binding POC” value at MKK7 was 89% of control. Further, the IC50 in the test on BTK is 2.3 nM. Also, the “JNK1 (MAPK8) POC” value at JNK1 (MAPK8) is reported as 100% of control. For the same molecule, the “JNK2 (MAPK9) POC” value at JNK2 (MAPK9) is given as 100% of control. At JNK3 (MAPK10), the “JNK3 (MAPK10) POC” value is listed as 100% of control.
For the molecule `C=CC(=O)Nc1cccc(Oc2nc(Nc3ccc(N4CCN(C)CC4)cc3)nc3ccoc23)c1` [Poseltinib], the “TEC binding POC” value on TEC is given as 8.5% of control. For the same molecule, the “ITK binding POC” value on ITK is 1% of control. Moreover, the “BLK binding POC” value on BLK is 0.85% of control. In addition, the “ERBB2 binding POC” value at ERBB2 is on record as 8.7% of control. The “ERBB3 binding POC” value on ERBB3 was 97% of control. Besides, the “JAK3 binding POC” value in test [1] is 0.45% of control. Besides, the “MKK7 binding POC” value on MKK7 is reported as 100% of control. Moreover, in the test with BTK, the IC50 was 3 nM. In addition, the “JNK1 (MAPK8) POC” value at JNK1 (MAPK8) is 32% of control. In addition, the “JNK2 (MAPK9) POC” value on JNK2 (MAPK9) is 100% of control. Besides, the “JNK3 (MAPK10) POC” value on JNK3 (MAPK10) was 100% of control.

(Values after paper PMC11997881, “Comprehensive Characterization of Bruton’s Tyrosine Kinase Inhibitor Specificity, Potency, and Biological Effects: Insights into Covalent and Noncovalent Mechanistic Signatures” (ACS Pharmacology & Translational Science, 2025).)
